Laboratory results from ChEMBL document CHEMBL3098089, “Probing the human estrogen receptor-α binding requirements for phenolic mono- and di-hydroxyl compounds: a combined synthesis, binding and docking study” (Bioorg Med Chem, 2014).

Tests used:
[1] = biological target: T1, Estrogen receptor (Homo sapiens, UniProt P03372)
T1 sequence (P03372 whole entry): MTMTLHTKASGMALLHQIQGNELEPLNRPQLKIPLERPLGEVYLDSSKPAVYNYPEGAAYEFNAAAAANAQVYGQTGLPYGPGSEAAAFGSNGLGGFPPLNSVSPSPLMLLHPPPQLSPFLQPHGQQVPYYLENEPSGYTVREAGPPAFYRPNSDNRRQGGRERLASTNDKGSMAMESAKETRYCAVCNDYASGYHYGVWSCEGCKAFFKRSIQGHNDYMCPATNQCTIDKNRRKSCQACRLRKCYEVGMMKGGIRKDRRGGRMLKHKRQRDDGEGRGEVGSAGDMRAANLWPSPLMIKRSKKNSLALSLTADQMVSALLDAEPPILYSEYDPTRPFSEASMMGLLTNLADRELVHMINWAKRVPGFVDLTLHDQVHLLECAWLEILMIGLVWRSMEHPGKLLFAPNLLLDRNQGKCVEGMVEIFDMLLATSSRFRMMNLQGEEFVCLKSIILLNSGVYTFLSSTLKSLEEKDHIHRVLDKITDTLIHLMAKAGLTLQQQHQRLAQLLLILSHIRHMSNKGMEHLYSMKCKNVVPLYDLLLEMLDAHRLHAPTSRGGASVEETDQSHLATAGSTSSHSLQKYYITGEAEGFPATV

[2] = biological target: T2, Estrogen receptor beta (Homo sapiens, UniProt Q92731)
[3] = biological target: T2, Estrogen receptor beta; remark: listed apart in the source
[4] = biological target: T1, Estrogen receptor; remark: listed apart in the source

T2 sequence (Q92731 whole entry): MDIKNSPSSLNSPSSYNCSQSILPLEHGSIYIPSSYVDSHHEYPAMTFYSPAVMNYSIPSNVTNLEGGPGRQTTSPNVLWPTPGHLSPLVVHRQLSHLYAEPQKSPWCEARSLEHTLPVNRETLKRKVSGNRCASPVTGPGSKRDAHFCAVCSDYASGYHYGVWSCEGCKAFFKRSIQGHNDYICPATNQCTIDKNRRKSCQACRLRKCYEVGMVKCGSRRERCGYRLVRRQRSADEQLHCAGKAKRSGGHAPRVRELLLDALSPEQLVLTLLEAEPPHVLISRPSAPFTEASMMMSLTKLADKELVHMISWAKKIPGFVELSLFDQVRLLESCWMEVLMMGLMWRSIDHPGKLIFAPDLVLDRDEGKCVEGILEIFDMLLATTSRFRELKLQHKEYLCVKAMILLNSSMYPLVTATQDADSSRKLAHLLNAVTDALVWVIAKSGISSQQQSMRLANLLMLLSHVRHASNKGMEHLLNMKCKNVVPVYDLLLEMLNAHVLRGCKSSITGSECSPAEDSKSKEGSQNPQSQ

Structure (SMILES): C[C@@H](CCO)C1=CC[C@H]2[C@@H]3CCc4cc(O)ccc4[C@H]3CC[C@]12C
- Kd [1]: 320 nM
- IC50 [2]: 275 nM
- IC50 [3]: 108 nM

Structure (SMILES): C[C@]12CC[C@@H]3c4ccc(O)cc4CC[C@H]3[C@@H]1CC=C2CO
- IC50 [3]: 6.8 nM

Structure (SMILES): OC[C@H]1CCC[C@@H](c2ccc(O)cc2)CC1 (racemic)
- Kd [1]: > 1000 nM

Structure (SMILES): CC[C@H](C)C1=CC[C@H]2[C@@H]3CCc4cc(O)ccc4[C@H]3CC[C@]12C
- Kd [1]: 160 nM
- IC50 [2]: 70 nM
- IC50 [3]: 88 nM

Structure (SMILES): CC1C[C@H](C)C2(CC[C@H]3[C@@H]4CCc5cc(O)ccc5[C@H]4CC[C@@]32C)O1 (stereo partly drawn)
- IC50 [4]: 484 nM
- Kd [1]: 160 nM
- IC50 [3]: 111 nM

Structure (SMILES): CCCOC(=O)[C@H]1CC[C@H]2[C@@H]3CCc4cc(O)ccc4[C@H]3CC[C@]12C
- IC50 [4]: 92 nM
- Kd [1]: 320 nM
